The values that follow come from publication PMC9286045 (Journal of Peptide Science, 2021).

Data set [1] relates to OXT-receptor compartment of the potassium depolarized rat myometrium. As to the kind of experiment: Oil-immersion (stopped-transport) and washout time–response experiments on myometrium strips. As to conditions: for Cumulative clearance k r + κ / k r (transport rate constant between receptor compartment and aqueous medium) / κ Observed (irreversible clearance rate constant in the receptor compartment): K+-depolarized rat myometrium strip ex vivo, 30°C, arithmetic mean ± SD of computation runs; for Cumulative clearance k r + κ: washout decay phase; for k r (transport rate constant between receptor compartment and aqueous medium): from combined oil-immersion and washout data; for κ Observed (irreversible clearance rate constant in the receptor compartment): high potassium Ringer medium (Ca2+, Mg2+ 0.5 mM), oil-immersion decay phase, isometric tension, nonlinear regression; for κ (N) − κ (D): κ-difference of coherent N & D pairs, value shared by both peptides of the pair, C1,6OT/DC1,6OT pair uses predicted κ.
Description: (§1) Female virgin Sprague–Dawley rats (body weight approximately 200 g) in natural oestrus (detected by vaginal smears) were sacrificed by decapitation, both uterus horns were dissected and the perimetrium was pulled off. Their middle sections (approximately 15 mm) were longitudinally cut into 3‐ to 4‐mm strips; the endometrium (the inward layer of the horns) was removed by scraping. In average, three strips of each animal (31 rats in total) were used in the experiments.
(§2) A stripe was mounted in an adapted annealed organ chamber (17 mm × 65 mm) with a ventilation inlet tube containing 10‐ml Munsick medium (see above) and attached to an isometric force transducer. The basic tension was adjusted to 10 ± 0.2 mN (1 gf, gram‐force). Measurements were carried out at 30°C under continuous ventilation with Carbogen gas (25% O2 + 5% CO2). […] Each strip used for stimulation by a single peptide (for concentration of stimulating agents, cf. Table 2). Oil‐immersion and washout experiments were carried out on different strips from the same animal. Stimulation runs (two to four per strip) for each peptide were repeated on strips of different rat uteri.
(§3) Tonic contraction of the depolarized myometrium strips in a high potassium Ringer organ bath medium[46] (concentration of Ca^2+ and of Mg^2+: 0.5 mM) was elicited by roughly equipotent concentrations of single peptides around their D 2 values (the concentration causes the half of the maximally attainable contraction in oestrogen‐dominated myometrium). After reaching a steady‐state level (stimulation phase), the medium was exchanged by a low viscosity paraffin oil (oil‐immersion phase) or alternatively by the peptide‐free bath medium (washout phase). The time‐tension profiles of the strip were recorded by an isometric force transducer (Statham strain gauge UC3).
(§4) We employed here its modified version focused on the comparison of clearance and transport rate constants (Figure 2). It consists virtually of two distribution spaces: the receptor compartment (subscript r; see Section 4) and the external aqueous tissue medium (w). The rate of mass transport of agents through the tissue‐medium interface (transport constants k r , k w ) is directly proportional to the rate constant of diffusion k (dimension: volume/time) and inversely proportional to the respective compartment volume V r , V w : for the receptor compartment k r = k/V r , for the medium k w = k/V w . The constant κ relates to the (irreversible) clearance rate from the receptor compartment (dimension: time^−1). The rate equations determining the time response of the peptide concentrations in the corresponding compartments (c r , c w ) are then (1a) c˙w=−kcw−cr/Vw, (1b) c˙r=kcw−cr/Vr−κcr, wherein dotted symbols denote first derivatives with respect to time t: x˙≡dx/dt . • In the stimulation phase, concentration c w is expected to be constant, c w = c 0 (and c˙w=0 ) within the time interval of stimulation; the integration of Equation 1b yields (2) crt=cr,∞1−e^−kr+κt, where c r,∞ is a steady state value of c r , (3) cr,∞≡limt→∞crt=c0kr/kr+κ.
(§5) • In the wash‐out decay phase, the concentration in the external medium (c w ) is kept zero by a quick perifusion; c r,∞ is the initial value (t = 0), i.e., a c r steady state value before termination of the stimulation phase, (4) crt=cr,∞e^−kr+κt.
(§6) The sum k r + κ stands for the cumulative clearance rate constant of the peptide in the receptor compartment. • The insertion of oil (oil‐immersion decay phase) reduces the volume V w to a small residual aqueous layer v w around the tissue; obviously, v w ≪ V w and the corresponding modified mass transport rate constant kw′=k/vw is very large, limvw→0kw′=∞ .

For data set [2] the test system is unchanged. Put plainly: Fragmented inactivation model of GOT and DGOT (oil-immersion time–response data). Format: in vitro ADME. Particulars: for κ AM (rate constant of residual clearance) / κ c (rate constant of ester hydrolysis [Glu(OMe)^4]‐X → [Glu^4]‐X): K+-depolarized rat myometrium, oil-immersion, arithmetic mean ± SD; for κ AM (rate constant of residual clearance): assumption κ A ≈ κ M, runs in parentheses; for κ c (rate constant of ester hydrolysis [Glu(OMe)^4]‐X → [Glu^4]‐X): nonlinear regression Equation 17, number of computation runs in parentheses, 95% confidence limits in < >; for Δκ AM: difference of mean values κ AM (GOT) − κ AM (DGOT), expected rate constant of N-terminal (aminopeptidase) splitting; for Estimates of κ: κ AM + κ c: sum of fragments. The source says:
This is an alternative to model represented by Equation 12b, whereε A (t), ε M (t) are response fractions of the respective primary agents and of its active metabolite(s) (16a) ε˙At=−κc+κAεAt, (16b) ε˙Mt=κcεAt−κMεMt.
Figure 6 depicts the proposed reaction scheme.
Δ α = α M /α A is the standardised biological activity (e.g., in IU/mg). Exponential constants for GOT and DGOT were obtained by the nonlinear regression analysis using numeric procedures described above and are summarized in Table 3.

For data set [3] the following is noted: rats, cited from earlier work.
The conditions of data set [4]: human, in vivo; cited from earlier work.
In data set [5] the test system is OXT-receptor compartment of the potassium depolarized rat myometrium.
Description: as §1, §2, §3, §4, §5, §6
Data set [6] deals with uterus. As to conditions: cited from earlier work.

Several values for one entry are separate records, joined by “and”; a condition that tells them apart may be missing. Equal values may be shown once. Read-outs that look alike come from different tables or passages of the source. Numbered stars: 1 amine (or outer) side, 2 acyl side, 3 side chain; on linkers, the order of the positions; unused ones are H or OH. Bridge positions count the residues as written; N and C are the ends. Square brackets hold non-standard residues; d marks the D form. Peptide text beside a SMILES is read from it. Abu(4-yl) = O=C([C@H](CC[*:3])N[*:1])[*:2]; X1 = O=C([C@@H](O)CS[*:2])[*:1]; X2 = O=C(CCC[*:2])[*:1]

On to `CC[C@H](C)[C@@H]1NC(=O)[C@H](Cc2ccc(O)cc2)NC(=O)[C@@H](N)CSSC[C@@H](C(=O)N2CCC[C@H]2C(=O)N[C@@H](CC(C)C)C(=O)NNC(N)=O)NC(=O)[C@H](CC(N)=O)NC(=O)[C@H](CCC(N)=O)NC1=O` [AOT, [9‐Azaglycine]‐OXT], for which, in data set [1], the “Cumulative clearance k r + κ” value turned out to be 0.278 ± 0.015 min⁻¹; the “k r (transport rate constant between receptor compartment and aqueous medium)” value was determined as 0.158 ± 0.020 min⁻¹; the “κ Observed (irreversible clearance rate constant in the receptor compartment)” value (shortened to “κ Observed”) amounted to 0.118 ± 0.008 min⁻¹; the “κ (N) − κ (D)” value is 0.076 min⁻¹.

For `CC[C@H](C)[C@@H]1NC(=O)[C@H](Cc2ccc(O)cc2)NC(=O)[C@@H](N)CCCC[C@@H](C(=O)N2CCC[C@H]2C(=O)N[C@@H](CC(C)C)C(=O)NCC(N)=O)NC(=O)[C@H](CC(N)=O)NC(=O)[C@H](CCC(N)=O)NC1=O` [C1,6OT, [1,6‐α′,α‐diaminosuberic acid]‐OXT], in data set [1], the “Cumulative clearance k r + κ” value was found to be 0.263 ± 0.009 min⁻¹; the “k r (transport rate constant between receptor compartment and aqueous medium)” value turned out to be 0.194 ± 0.011 min⁻¹; the “κ Observed” value was 0.076 ± 0.005 min⁻¹.

As for `CC[C@H](C)[C@@H]1NC(=O)[C@H](Cc2ccc(O)cc2)NC(=O)CCSSC[C@@H](C(=O)N2CCC[C@H]2C(=O)N[C@@H](CC(C)C)C(=O)NNC(N)=O)NC(=O)[C@H](CC(N)=O)NC(=O)[C@H](CCC(N)=O)NC1=O` [DAOT, [1‐β‐mercaptopropionic acid, 9‐azaglycine]‐OXT], in data set [1], the “Cumulative clearance k r + κ” value amounted to 0.194 ± 0.033 min⁻¹; the “k r (transport rate constant between receptor compartment and aqueous medium)” value was found to be 0.139 ± 0.044 min⁻¹; the “κ Observed” value amounted to 0.042 ± 0.015 min⁻¹; the “κ (N) − κ (D)” value was 0.076 min⁻¹.

Regarding `CC[C@H](C)[C@@H]1NC(=O)[C@H](Cc2ccc(O)cc2)NC(=O)CCCSC[C@@H](C(=O)N2CCC[C@H]2C(=O)N[C@@H](CC(C)C)C(=O)NCC(N)=O)NC(=O)[C@H](CC(N)=O)NC(=O)[C@H](CCC(N)=O)NC1=O` [DC1OT, [1,6‐(2‐Amino‐4‐thiasuberic acid)]‐OXT] (YIQNCPLG-NH2; linker N-5 via X2), in data set [1], the “Cumulative clearance k r + κ” value came out at 0.160 ± 0.021 min⁻¹; the “k r (transport rate constant between receptor compartment and aqueous medium)” value amounted to 0.097 ± 0.025 min⁻¹; the “κ Observed” value turned out to be 0.102 ± 0.016 min⁻¹; the “κ (N) − κ (D)” value was 0.060 min⁻¹.

For the compound `CC[C@H](C)[C@@H]1NC(=O)[C@H](Cc2ccc(O)cc2)NC(=O)CCSSC[C@@H](C(=O)N2CCC[C@H]2C(=O)N[C@@H](CC(C)C)C(=O)NCC(N)=O)NC(=O)[C@H](CC(N)=O)NC(=O)[C@H](CCC(=O)OC)NC1=O` [DGOT, [1‐β‐mercaptopropionic acid, 4‐glutamic acid‐δ‐methylester]‐OXT], in data set [2], the “κ AM (rate constant of residual clearance)” value is 0.053 ± 0.014 (14) <0.045; 0.061> min^−1, the “κ c (rate constant of ester hydrolysis [Glu(OMe)^4]‐X → [Glu^4]‐X)” value is 0.032 ± 0.011 (14) <0.025; 0.038> min^−1, the “Δκ AM” value was 0.081 min⁻¹ and the “Estimates of κ: κ AM + κ c” value was 0.085 min⁻¹. In data set [1], the “Cumulative clearance k r + κ” value is 0.211 ± 0.027 min⁻¹; the “k r (transport rate constant between receptor compartment and aqueous medium)” value amounted to 0.107 ± 0.034 min⁻¹; the “κ Observed” value is 0.076 ± 0.018 min⁻¹ and 0.076 min⁻¹; the “κ (N) − κ (D)” value is 0.092 min⁻¹.

Turning to `CC[C@H](C)[C@@H]1NC(=O)[C@H](Cc2ccc(O)cc2)NC(=O)CCSSC[C@@H](C(=O)N2CCC[C@H]2C(=O)N[C@@H](CC(C)C)C(=O)NCC(N)=O)NC(=O)[C@H](CC(N)=O)NC(=O)[C@H](CCC(N)=O)NC1=O` [DOT, [1‐β‐mercaptopropionic acid]‐OXT], in data set [1], the “Cumulative clearance k r + κ” value was found to be 0.176 ± 0.024 min⁻¹; the “k r (transport rate constant between receptor compartment and aqueous medium)” value was found to be 0.149 ± 0.026 min⁻¹; the “κ Observed” value amounted to 0.049 ± 0.021 min⁻¹; the “κ (N) − κ (D)” value was 0.088 min⁻¹.

Take `CC[C@H](C)[C@@H]1NC(=O)[C@H](Cc2ccc(O)cc2)NC(=O)[C@@H](N)CSSC[C@@H](C(=O)N2CCC[C@H]2C(=O)N[C@@H](CC(C)C)C(=O)NCC(N)=O)NC(=O)[C@H](CC(N)=O)NC(=O)[C@H](CCC(=O)OC)NC1=O` [GOT, [4‐Glutamic acid‐δ‐methylester]‐OXT]: in data set [2], the “κ AM (rate constant of residual clearance)” value is recorded as 0.134 ± 0.025 (12) <0.132; 0.135> min^−1, the “κ c (rate constant of ester hydrolysis [Glu(OMe)^4]‐X → [Glu^4]‐X)” value was 0.033 ± 0.012 (22) <0.028; 0.038> min^−1, the “Δκ AM” value turned out to be 0.081 min⁻¹ and the “Estimates of κ: κ AM + κ c” value is 0.167 min⁻¹. In data set [1], the “Cumulative clearance k r + κ” value was 0.267 min⁻¹; the “k r (transport rate constant between receptor compartment and aqueous medium)” value was 0.108 min⁻¹; the “κ Observed” value is 0.166 min⁻¹; the “κ (N) − κ (D)” value is 0.092 min⁻¹.

In the case of `CC[C@H](C)[C@@H]1NC(=O)[C@H](Cc2ccc(O)cc2)NC(=O)[C@@H](O)CSSC[C@@H](C(=O)N2CCC[C@H]2C(=O)N[C@@H](CC(C)C)C(=O)NCC(N)=O)NC(=O)[C@H](CC(N)=O)NC(=O)[C@H](CCC(N)=O)NC1=O` [HOT, [1‐(2‐Hydroxy‐3‐β‐mercaptopropanoic acid)]‐OXT] (YIQNCPLG-NH2; linker N-5 via X1), in data set [1], the “Cumulative clearance k r + κ” value was determined as 0.289 ± 0.010 min⁻¹; the “k r (transport rate constant between receptor compartment and aqueous medium)” value amounted to 0.139 ± 0.012 min⁻¹; the “κ Observed” value was 0.141 ± 0.008 min⁻¹.

Turning to `CC[C@H](C)[C@@H]1NC(=O)[C@H](Cc2ccc(O)cc2)NC(=O)[C@@H](N)CSSC[C@@H](C(=O)N2CCC[C@H]2C(=O)N[C@@H](CC(C)C)C(=O)NCC(N)=O)NC(=O)[C@H](CC(N)=O)NC(=O)[C@H](CCC(N)=O)NC1=O` [OXT, Oxytocin, reference compound], the “half‐life” value in data set [3] (regardless of gender and reproductive cycle) was 1.65 min. Further, the elimination rate constant in data set [3] (related to the half-life of 1.65 min) is 0.6 min⁻¹. For the same compound, in data set [1], the “Cumulative clearance k r + κ” value came out at 0.254 ± 0.028 min⁻¹; the “k r (transport rate constant between receptor compartment and aqueous medium)” value turned out to be 0.137 ± 0.030 min⁻¹; the “κ Observed” value stood at 0.137 ± 0.025 min⁻¹; the “κ (N) − κ (D)” value is 0.088 min⁻¹. Besides, in data set [4], the “half‐life in the blood plasma” value was 1.5 to 8 min.

For `CC[C@H](C)[C@@H]1NC(=O)[C@H](Cc2ccc(O)cc2)NC(=O)[C@@H](N)CCSC[C@@H](C(=O)N2CCC[C@H]2C(=O)N[C@@H](CC(C)C)C(=O)NCC(N)=O)NC(=O)[C@H](CC(N)=O)NC(=O)[C@H](CCC(N)=O)NC1=O` [Peptide C1OT, [6,1‐Cystathionine]‐OXT] (H-[Abu(4-yl)]YIQNCPLG-NH2; thioether 1-6), in data set [1], the “Cumulative clearance k r + κ” value came to 0.272 ± 0.037 min⁻¹; the “k r (transport rate constant between receptor compartment and aqueous medium)” value amounted to 0.116 ± 0.041 min⁻¹; the “κ Observed” value is 0.162 ± 0.032 min⁻¹; the “κ (N) − κ (D)” value is 0.060 min⁻¹.

For the compound “[6,1‐(2‐Amino‐4‐thiasuberic acid)]‐OXT [DC6OT]”, in data set [5], the “Cumulative clearance k r + κ” value came out at 0.147 ± 0.015 min⁻¹ and the “κ Observed” value stood at 0.105 ± 0.008 min⁻¹.

In the case of [7‐glycine]‐oxytocin, the “ex vivo half‐life of uterotonic response as compared with oxytocin” value in data set [6] was “considerably shorter half‐life”.
